Results: PMC10254170, “Diastereoselective Synthesis of the Borylated D-Galactose Monosaccharide 3-Boronic-3-Deoxy-D-Galactose and Biological Evaluation in Glycosidase Inhibition and in Cancer for Boron Neutron Capture Therapy (BNCT)” (Molecules, 2023)
Read-outs that look alike come from different tables or passages of the source.

Legend:
[1] = tested on: MiaPaCa-2 (pancreatic carcinoma); test: Cancer screening (MTT growth inhibition), MIA-Pa-Ca2; type: cell-based; settings: 72 h; for inhibition at 25 µM: MIA PaCa-2, 25 µM of drug, read-out: Percentage (%) cell growth inhibition; for inhibition at 25 µM / Percentage (%) cell growth inhibition: n = 3, mean ± SEM; for Percentage (%) cell growth inhibition: 25 µM of drug
Procedure: (§1) All test agents were prepared as stock solutions (20 mM) in dimethyl sulfoxide (DMSO) and stored at −20 °C. Cell lines used in the study included: HT29 (colorectal carcinoma), U87 and SJ-G2 (glioblastoma), MCF-7 (breast carcinoma), A2780 (ovarian carcinoma), H460 (lung carcinoma), A431 (skin carcinoma), Du145 (prostate carcinoma), BE2-C (neuroblastoma), MiaPaCa-2 (pancreatic carcinoma), SMA560 (spontaneous murine astrocytoma), and ADDP (Cis Res Ovarian), together with one non-tumor-derived normal breast cell line (MCF10A). All cell lines were incubated in a humidified atmosphere with 5 % CO2 at 37 °C. The cancer cell lines were maintained in Dulbecco’s modified Eagle’s medium (DMEM; Sigma, Australia) supplemented with fetal bovine serum (10%), sodium pyruvate (10 mM), penicillin (100 IUmL^−1), streptomycin (100 µg mL^−1), and L-glutamine (2 mM).
(§2) Growth inhibition was determined by plating cells in duplicate in medium (100 µL) at a density of 2500–4000 cells per well in 96-well plates. On day 0 (24 h after plating), when the cells are in logarithmic growth, medium (100 µL) with or without the test agent was added to each well. After 72 h of drug exposure, growth inhibitory effects were evaluated using the (3-(4,5-dimethyltiazol-2-yl)-2,5-diphenyltetrazolium bromide) (MTT) assay and absorbance read at 540 nm. The percentage growth inhibition was calculated at a fixed concentration of 25 µM, based on the difference between the optical density values on day 0 and those at the end of drug exposure. Each data point is the mean ± the standard error of the mean (SEM) calculated from three replicates, which were performed on separate occasions and in separate cell line passages.

yeast α-glucosidase = test: Glycosidase inhibition, yeast α-glucosidase; type: biochemical; settings: for inhibition %: in methanol
Excerpt: (§3) Glycosidase modulation studies need to explore selectivity as well as potency. Our drugs and controls are therefore screened against a panel of glycosidases in methanol (Table 1) to identify the glycosidase-related disease area(s), selectivity profile, and potency of biological action for each drug. The presence of organic boron covalently bonded to the drug structure also grants a reduced toxicity profile. Following the glycosidase inhibition range recommendations, an IC50 value >250 μm denotes weak inhibition, 100–249 μm denotes moderate inhibition, 10–99 μm good inhibition, 0.1–9 μm potent inhibition, and <0.1 μm very potent inhibition. […] Our boronated D-galactose 7 represents a novel lead in glycosidase inhibition.
(§4) The glycosidases screened are the following: rice α-glucosidase, yeast α-glucosidase, Bacillus α-glucosidase, rat intestinal maltase α-glucosidase, almond β-glucosidase, bovine liver β-glucosidase, coffee beans α-galactosidase, bovine liver β-galactosidase, Jack bean α-mannosidase, snail β-mannosidase, Penicillium decumbens α-L-rhamnosidase, bovine kidney α-L-fucosidase, Eschierichia coli β-glucuronidase, bovine liver β-glucuronidase, porcine kidney trehalase, Aspergillus niger amyloglucosidase, and bovine kidney N-acetyl-β-glucosaminidase. The disease areas for each glycosidase are summarized in [1].
(§5) The enzymes α-glucosidase (from yeast), β-glucosidases (from almond and bovine liver), α-galactosidase (from coffee beans), β-galactosidase (from bovine liver), α-mannosidase (from Jack bean), β-mannosidase (from snail), α-L-rhamnosidase (from Penicillium decumbens), α-L-fucosidase (from bovine kidney), trehalase (from porcine kidney), β-glucuronidases (from E. coli and bovine liver), amyloglucosidase (from A. niger), para-nitrophenyl glycosides, and various disaccharides were purchased from Sigma-Aldrich Co.
(§6) Brush border membranes were prepared from the rat small intestine according to the method of Kessler et al. and were assayed at pH 6.8 for rat intestinal maltase using maltose. For rat intestinal maltase, porcine kidney trehalase, and A. niger amyloglucosidase activities, the reaction mixture contained 25 mM maltose and the appropriate amount of enzyme, and the incubations were performed for 10–30 min at 37 °C. The reaction was stopped by heating at 100 °C for 3 min. After centrifugation (600 g; 10 min), the resulting reaction mixture was added to the Glucose CII-test Wako (Wako Pure Chemical Ind., Osaka, Japan). The absorbance at 505 nm was measured to determine the amount of the released D-glucose. Other glycosidase activities were determined using an appropriate para-nitrophenyl glycoside as substrate at the optimum pH of each enzyme. The reaction mixture contained 2 mM of the substrate and the appropriate amount of enzyme. The reaction was stopped by the addition of 400 mM Na2CO3. The released para-nitrophenol was measured spectrometrically at 400 nm. All reactions run in methanol.

snail β-mannosidase = test: Glycosidase inhibition, snail β-mannosidase; type: biochemical; settings: for inhibition %: in methanol
Excerpt: as §3, §4, §5, §6

Jack bean α-mannosidase = molecular target: T1, Jack bean α-mannosidase (Canavalia ensiformis, UniProt C0HJB3); test: Glycosidase inhibition, Jack bean α-mannosidase; type: biochemical
T1 construct: purchased Sigma-Aldrich Co
T1 sequence (C0HJB3 1-981): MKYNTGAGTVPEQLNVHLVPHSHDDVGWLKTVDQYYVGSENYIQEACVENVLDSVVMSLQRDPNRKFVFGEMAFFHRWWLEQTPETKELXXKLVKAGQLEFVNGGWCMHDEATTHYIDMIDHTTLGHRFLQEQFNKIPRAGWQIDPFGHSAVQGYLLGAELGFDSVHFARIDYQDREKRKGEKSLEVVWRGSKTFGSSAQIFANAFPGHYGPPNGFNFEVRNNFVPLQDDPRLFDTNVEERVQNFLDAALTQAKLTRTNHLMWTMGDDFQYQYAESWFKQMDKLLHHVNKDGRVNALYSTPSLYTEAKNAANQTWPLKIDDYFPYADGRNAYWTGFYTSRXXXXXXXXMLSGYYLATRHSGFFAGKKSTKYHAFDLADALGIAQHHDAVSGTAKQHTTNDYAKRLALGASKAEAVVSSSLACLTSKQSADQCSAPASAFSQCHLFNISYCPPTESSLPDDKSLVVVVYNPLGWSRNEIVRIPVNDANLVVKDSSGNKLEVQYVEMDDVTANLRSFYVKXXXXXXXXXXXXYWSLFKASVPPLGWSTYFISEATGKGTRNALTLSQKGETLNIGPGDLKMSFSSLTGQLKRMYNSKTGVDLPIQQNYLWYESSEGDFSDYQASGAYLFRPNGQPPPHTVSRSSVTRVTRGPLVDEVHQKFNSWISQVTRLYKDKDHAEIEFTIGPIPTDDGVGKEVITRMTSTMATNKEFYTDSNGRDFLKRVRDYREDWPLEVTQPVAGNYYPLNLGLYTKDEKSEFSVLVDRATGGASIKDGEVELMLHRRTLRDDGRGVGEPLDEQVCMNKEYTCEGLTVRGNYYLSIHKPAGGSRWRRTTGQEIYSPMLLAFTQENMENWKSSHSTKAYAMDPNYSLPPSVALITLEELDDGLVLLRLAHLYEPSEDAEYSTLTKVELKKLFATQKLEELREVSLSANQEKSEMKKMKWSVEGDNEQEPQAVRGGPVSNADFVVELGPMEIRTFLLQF
Excerpt: as §3, §4, §5, §6

U87 (glioblastoma) = test: Cancer screening (MTT growth inhibition), U87; type: cell-based; settings: 72 h; for inhibition at 25 µM / Percentage (%) cell growth inhibition: 25 µM of drug, n = 3, mean ± SEM; for inhibition at 25 µM: read-out: Percentage (%) cell growth inhibition
Procedure: as §1, §2

BE2-C (neuroblastoma) = test: Cancer screening (MTT growth inhibition), BE2-C; type: cell-based; settings: 72 h; for inhibition at 25 µM / Percentage (%) cell growth inhibition: 25 µM of drug, n = 3, mean ± SEM; for inhibition at 25 µM: read-out: Percentage (%) cell growth inhibition
Procedure: as §1, §2

[2] = at 100 μM, in methanol, read-out: inhibition %
[3] = at 100 μM, read-out: NI: No inhibition

Row | Compound | inhibition at 25 µM ([1]; Homo sapiens) [%] | NI: No inhibition (yeast α-glucosidase; at 100 μM) | inhibition % (yeast α-glucosidase; at 100 μM) [%] | NI: No inhibition (snail β-mannosidase; at 100 μM) | inhibition % (snail β-mannosidase; at 100 μM) [%] | inhibition at 100 µM (Jack bean α-mannosidase; [2]) [%] | inhibition at 100 µM (Jack bean α-mannosidase; [3]) [%] | inhibition at 25 µM (U87 (glioblastoma)) [%] | inhibition at 25 µM (BE2-C (neuroblastoma); Homo sapiens, BE(2)-C) [%] | Percentage (%) cell growth inhibition [1] [%] | Percentage (%) cell growth inhibition (U87 (glioblastoma)) [%] | Percentage (%) cell growth inhibition (BE2-C (neuroblastoma)) [%] | NI: No inhibition (yeast α-glucosidase; at 1000 μM) | inhibition % (yeast α-glucosidase; at 1000 μM) [%] | NI: No inhibition (snail β-mannosidase; at 1000 μM) | inhibition % (snail β-mannosidase; at 1000 μM) [%] | further results
1 | CC1(C)OCC(C2OC3OC(C)(C)OC3C2[B-]23OCC[NH+]2CCO3)O1 [Compound 6, 3-Deoxy-3-Boronodiethanolamine-1,2:5,6-Di-O-isopropylidene-α-D-galactofuranose] | 3 ± 1 | NI (No inhibition (less than 50% inhibition at 100 μM)) | 0 | NI (No inhibition (less than 50% inhibition at 100 μM)) | 0 | 0 | < 50 | 8 ± 4 | 2 ± 5 | – | – | – | – | – | – | – | –
2 | N[C@@H](Cc1ccc(B(O)O)cc1)C(=O)O [^10B-BPA] | – | NI (No inhibition (less than 50% inhibition at 100 μM)) | 0 | NI (No inhibition (less than 50% inhibition at 100 μM)) | 0.3 | – | – | – | – | 11 ± 3 | <0 | 10 ± 6 | – | – | – | – | NI: No inhibition (Jack bean α-mannosidase; at 100 μM): NI (No inhibition (less than 50% inhibition at 100 μM)); inhibition % (Jack bean α-mannosidase; at 100 μM, in methanol): 0%
3 | N[C@@H](Cc1ccc(B(O)O)cc1)C(=O)O [BPA, 4-borono-L-phenylalanine] | 3 ± 3 | NI (No inhibition (less than 50% inhibition at 100 μM)) | 0 | NI (No inhibition (less than 50% inhibition at 100 μM)) | 2.1 | 1.1 | < 50 | < 0 | 13 ± 10 | – | – | – | – | – | – | – | –
4 | OCC1OC(O)C(O)C(B(O)O)C1O [Compound 7, 3-Boronic-3-Deoxy-D-galactose] | 1 ± 2 | – | – | – | – | – | – | -6 ± 3 | 1 ± 2 | – | – | – | NI (No inhibition (less than 50% inhibition at 1000 μM)) | 12.1 | NI (No inhibition (less than 50% inhibition at 1000 μM)) | 0 | GI50 ([1]; Homo sapiens, MIA PaCa-2, dose response, read-out: GI50 = Concentration that inhibits cell growth by 50%): > 50 µM; inhibition at 1000 µM (Jack bean α-mannosidase; at 1000 μM, in methanol, read-out: inhibition %): 0%; inhibition at 1000 µM (Jack bean α-mannosidase; at 1000 μM, read-out: NI: No inhibition): < 50%; GI50 (U87 (glioblastoma); dose response, read-out: GI50 = Concentration that inhibits cell growth by 50%): > 50 µM; GI50 (BE2-C (neuroblastoma); Homo sapiens, BE(2)-C, dose response, read-out: GI50 = Concentration that inhibits cell growth by 50%): > 50 µM
5 | Borocaptate sodium [BSH] | – | – | – | – | – | – | – | – | – | 2 ± 6 | <0 | 10 ± 6 | NI (No inhibition (less than 50% inhibition at 1000 μM)) | 6.9 | NI (No inhibition (less than 50% inhibition at 1000 μM)) | 19.2 | NI: No inhibition (Jack bean α-mannosidase; at 1000 μM): NI (No inhibition (less than 50% inhibition at 1000 μM)); inhibition % (Jack bean α-mannosidase; at 1000 μM, in methanol): 7.9%
